Measured values from patent US12186423B2, “Brightening booster technology and brightening ampule” (MARY KAY INC., priority 2020, dated 2025).
“And” between values parts separate entries of the source, which are not always exact repeats. Equal values may be shown once.

Experiments:
[1] = tested on: B16-F1 melanocytes; experiment: B16 pigmentation assay (melanin production, absorbance at 405 nm); type: cell-based, mouse; conditions: for OD 405 (single readings of triplicate): active ingredients diluted to 1% in DMEM, whole plate reading; for OD 405 (single readings of triplicate) / OD 405 AVG: kojic acid 1 mM, 5-6 days; for OD 405 AVG: average absorbance at 405 nm of triplicate, actives diluted to 1%; for % INHIBITION: vs untreated cells; for % INHIBITION / % Inhibition (change in pigmentation): negative value = less pigmentation; for Melanogenesis (OD 405, single readings of triplicate): alone and combined, kojic acid positive control; for Melanogenesis AVG (OD 405): average of triplicate; for % Inhibition (change in pigmentation): viability-corrected, vs untreated
Description: Melanogenesis is the process by which melanocytes produce melanin, a naturally produced pigment that imparts color to skin, hair, and eyes. Inhibiting melanogenesis is beneficial to prevent skin darkening and lighten dark spots associated with aging. […] The endpoint of these assays are a spectrophotometric measurement of melanin production and cellular viability. B16-F1 melanocytes were cultivated to subconfluence at 37° C. in 10% CO2 in T150 tissue culture flasks in standard DMEM growth medium supplemented with 10% fetal bovine serum (Mediatech) and 1% penicillin/streptomycin. Cells in one confluent T150 tissue culture flask were trypsinized and resuspended in DMEM, and 1% of the resuspended cells were seeded in 200 μl total volume DMEM in each well of a 96-well tissue culture plate. For phenol red-free media, 200 mM L-glutamine (20 ml/L) (Mediatech) was also added to the DMEM growth medium. […] Once cells reached about 20% confluence, cells were treated with any one of the active ingredients, combination of ingredients, or compositions having said combinations disclosed in the specification by replacing the DMEM growth media with 200 μl DMEM growth media containing diluted active ingredients. Cells were also treated with 1 mM kojic acid as a positive control. Cells were then incubated for 5-6 days at 37° C. in 10% CO2. Following incubation, melanin secretion was measured by absorbance of the whole plate at 405 nm (OD 405) (whole plate reading). […] Percent viability of the cell samples was calculated using the following formula: % Viability=(Mean OD 490 of Sample/Mean OD 490 of Control). […] Percent change in pigmentation of the cell samples was calculated using the following formula: % Change=% pigmentation of Sample−% pigmentation of Control.

[2] = tested on: B16-F1 melanocytes; type: cell-based; conditions: mouse
Description: The endpoint of these assays are a spectrophotometric measurement of melanin production and cellular viability. B16-F1 melanocytes were cultivated to subconfluence at 37° C. in 10% CO2 in T150 tissue culture flasks in standard DMEM growth medium supplemented with 10% fetal bovine serum (Mediatech) and 1% penicillin/streptomycin. Cells in one confluent T150 tissue culture flask were trypsinized and resuspended in DMEM, and 1% of the resuspended cells were seeded in 200 μl total volume DMEM in each well of a 96-well tissue culture plate. For phenol red-free media, 200 mM L-glutamine (20 ml/L) (Mediatech) was also added to the DMEM growth medium. Active ingredients were diluted to 1% in DMEM growth medium. Once cells reached about 20% confluence, cells were treated with any one of the active ingredients, combination of ingredients, or compositions having said combinations disclosed in the specification by replacing the DMEM growth media with 200 μl DMEM growth media containing diluted active ingredients. Cells were also treated with 1 mM kojic acid as a positive control. Cells were then incubated for 5-6 days at 37° C. in 10% CO2. Following incubation, melanin secretion was measured by absorbance of the whole plate at 405 nm (OD 405) (whole plate reading). […] Percent viability of the cell samples was calculated using the following formula: % Viability=(Mean OD 490 of Sample/Mean OD 490 of Control). […] Percent change in pigmentation of the cell samples was calculated using the following formula: % Change=% pigmentation of Sample−% pigmentation of Control.

[3] = second experiment, 2% niacinamide, 2% navy bean, 0.2% ferulic acid

| Compound | OD 405 (single readings of triplicate) ([1]; first experiment) | OD 405 AVG ([1]; first experiment) | % INHIBITION ([1]; first experiment) | Melanogenesis (OD 405, single readings of triplicate) [1, 3] | Melanogenesis AVG (OD 405) [1, 3] | % Inhibition (change in pigmentation) ([1]; second experiment) | % Viability [2] | Viability AVG (OD 490) [2] | effect on pigmentation / melanin secretion (in words) ([1]; first experiment) | inhibited pigmentation / melanin secretion ([1]; second experiment, 2% navy bean, 0.2% ferulic acid, 2% niacinamide) | OD 405 (single readings of triplicate) ([1]; first experiment, listed as CONTROL) |
| --- | --- | --- | --- | --- | --- | --- | --- | --- | --- | --- | --- |
| NC(=O)c1cccnc1 [Niacinamide (B3), Niacinamide] | 0.775 and 0.766 and 0.78 | 0.774 | 3.941% | 0.775 and 0.766 and 0.78 | 0.774 | 3.58% | 100% | 1.725 | – | – | – |
| COc1cc(/C=C/C(=O)O)ccc1O [Ferulic Acid (FA), Ferulic acid] | 0.367 and 0.384 and 0.391 | 0.381 | −48.858% | 0.367 and 0.384 and 0.391 | 0.381 | −48.03% | 98.4% | 1.692 | inhibited pigmentation to some degree | 48.03% | – |
| O=c1cc(CO)occ1O [Kojic Acid, kojic acid] | – | 0.328 | −55.979% | 0.31 and 0.333 and 0.34 | 0.328 | −55.14% | 98.1% | 1.687 | – | – | 0.31 and 0.333 and 0.34 |
